Here are results for 14 molecules from ChEMBL document CHEMBL3091354, “Tyrosinase and Layer-by-Layer supported tyrosinases in the synthesis of lipophilic catechols with antiinfluenza activity” (Bioorg Med Chem, 2013).

Values after ≈ are worked out from the molar mass of the structure shown. Active and inactive are the calls of the source. The rule behind the calls is not given here.

For data set [1], the system named is Influenza A virus. As to the kind of experiment: Antiviral activity against Influenza A/PR8/H1N1 virus infected in MDCK cells assessed as inhibition of virus yield after 24 hrs. The class given is functional, organism-based.
Data set [2] concerns Radical scavenging activity. As to the kind of experiment: Antioxidant activity assessed as DPPH radical scavenging activity. It counts as functional. Background: The DPPH test is a chemical assay of radical scavenging.
The test system of data set [3] is Influenza A virus. Nature of the data set: Antiviral activity against Influenza A/PR8/H1N1 virus infected in MDCK cells assessed as inhibition of virus yield after 48 hrs. It counts as functional.
Data set [4] concerns Influenza A virus. As to the kind of experiment: Antiviral activity against Influenza A/PR8/H1N1 virus infected in MDCK cells assessed as inhibition of virus yield at 10 to 20 ug/ml after 48 hrs. It counts as functional, organism-based.
Data set [5] deals with MDCK. Nature of the data set: Cytotoxicity against MDCK cells assessed as effect on cell viability at 20 ug/ml. It counts as cell-based, Canis lupus familiaris. Particulars: dog.
In data set [6] the test system is MDCK. Nature of the data set: Cytotoxicity against MDCK cells assessed as effect on cell morphology at 50 to 100 ug/ml. It counts as cell-based, Canis lupus familiaris. The following applies: dog.
The subject of data set [7] is MDCK. Nature of the data set: Cytotoxicity against MDCK cells assessed as effect on cell morphology at 20 ug/ml. The following applies: dog. The class given is cell-based, Canis lupus familiaris.
The test system of data set [8] is MDCK. Nature of the data set: Cytotoxicity against MDCK cells assessed as effect on cell viability at 50 to 100 ug/ml. It counts as cell-based, Canis lupus familiaris. Particulars: dog.

One may read the IC50 as the concentration needed to halve the response being measured. As for `NC(=O)c1ncn([C@@H]2O[C@H](CO)[C@@H](O)[C@H]2O)n1` [RIBAVIRIN], the half-inhibitory concentration (IC50) in data set [1] was determined as 14 µM.

As a reminder, the EC50 is the concentration needed to bring the measured effect to its halfway point. Take `CCC(=O)OCCc1ccc(O)c(O)c1`: the concentration giving a half-maximal response (EC50) in data set [2] turned out to be 0.56 µg/mL (≈ 2.66 µM). Besides, in data set [3], the “inhibition (INH)” value is 75%.

For `COC(=O)CCc1ccc(O)c(O)c1`, in data set [2], the EC50 came to 161.9 µg/mL (≈ 825 µM). Moreover, the inhibition result in data set [3] was “inactive”.

Regarding `CC(=O)OCCc1ccc(O)c(O)c1`, the EC50 in data set [2] was found to be 0.57 µg/mL (≈ 2.91 µM). Besides, in data set [3], the inhibition result is “inactive”.

Turning to `COC(=O)CCc1ccc(O)cc1`, the outcome in data set [2] was inactive.

`O=C(O)CCc1ccc(O)c(O)c1` [DIHYDROCAFFEIC ACID]: in data set [2], the half-maximal effective concentration (EC50) is 61.29 µg/mL (≈ 336 µM). Besides, the inhibition entry in data set [3] was “inactive”.

As for `CCCCOC(=O)CCc1ccc(O)c(O)c1`, the EC50 in data set [2] turned out to be 58.9 µg/mL (≈ 247 µM). Also, the inhibition entry in data set [3] was “inactive”.

For the molecule `CCCCC(=O)OCCc1ccc(O)cc1`, the result in data set [4] was inactive.

`O=C(O)CCc1ccc(O)cc1`: in data set [2], the result was inactive.

For `CCCOC(=O)CCc1ccc(O)c(O)c1`, the half-maximal effective concentration (EC50) in data set [2] was 89.65 µg/mL (≈ 400 µM). The inhibition entry in data set [3] was “inactive”.

Regarding `CCCC(=O)OCCc1ccc(O)c(O)c1` [HYDROXYTYROSOL BUTANOATE], in data set [1], the 50% inhibitory concentration (IC50) amounted to 29.8 µM. The inhibition entry in data set [1] was “Dose-dependent effect”. For the same molecule, the Activity result in data set [5] is listed as “Non-toxic”; in data set [6] it was “Toxic”; in data set [7], “Non-toxic”; in data set [8], “Toxic”. Also, the EC50 in data set [2] stood at 0.58 µg/mL (≈ 2.59 µM).

For `CCCCC(=O)OCCc1ccc(O)c(O)c1`, the concentration for half-maximal inhibition (IC50) in data set [1] was 34 µM. Besides, in data set [1], the inhibition entry is “Dose-dependent effect”. Further, the Activity result in data set [5] is recorded as “Non-toxic”; in data set [6], “Toxic”; in data set [7] it was “Non-toxic”; in data set [8] it was “Toxic”. For the same molecule, in data set [2], the concentration for a half-maximal effect (EC50) was found to be 0.59 µg/mL (≈ 2.48 µM).

As to `CCOC(=O)CCc1ccc(O)c(O)c1`, the EC50 in data set [2] was determined as 136.7 µg/mL (≈ 650 µM). In data set [3], the inhibition result is “inactive”.

Turning to `CCCC(=O)OCCc1ccc(O)cc1`, the outcome in data set [4] was inactive.
